Reference: patent US6737407B1, “Treatment of obesity” (Metabolic Pharmaceuticals, Ltd., priority 1997, dated 2004)
Where no end group is shown, it is not given here.

How the values were obtained:
C57BL/6J (ob/ob) mice = assay: Chronic 18-day treatment of obese mice with hGH 177-191: body weight gain, food consumption, adipose tissue weight; type: in vivo, mouse; settings: for Initial body wt.: treated group, before 18-day daily i.p. 200 μg/kg
Experimental: FIGS. 1A & 1B show the effect of hGH 177-191 peptide on cumulative body weight gains in male (1A) and female (1B) C57BL/6J (ob/ob) mice during the 18-day treatment period. Animals were given a daily intraperitoneal injection of 0.1 ml of either saline or hGH 177-191 (200 μg/kg body weight). Each points represents the mean±SEM of 6 animals.
FIGS. 2A & 2B show the average daily food consumption (g/mouse/day) of C57BL/6J (ob/ob) mice during an 18day treatment period with hGH 177-191. The treatment for the four groups of animals was as described in FIGS. 1A & 1B. Each point represents the mean±SEM of 6 animals.
The animals of the same age and same sex were randomly divided into two groups, housed 6 per cage and maintained on a normal 12-hr light/dark cycle at a constant room temperature of 25° C. in the animal house of the Department of Biochemistry and—Molecular Biology, Monash University, Clayton, Australia. Animals were fed ad libitum on pre-determined quantity of animal pellets (Clark King, Melboume, Australia) and allowed free access to water at all times. The animals were given a daily intraperitoneal (i.p) injection of 0.1 ml of either the synthetic peptide (200-500 μg/kg body weight) or equivalent volume of physiological saline (0.9% sodium chloride) for appropriate number of days. The i.p. injection was administered with a 30G×½″ (0.31×13 mm) needle on a 1-ml disposable tuberculin syringes, and the site of injection was the lower left quadrant of the abdomen of the animals. To study the effects of controlled-delivery of hGH 177-191 and analogues, slow-release peptide-pellets in a diameter of 3 mm were implanted intradermally in the abdominal region of Zucker rats under anaesthesia. The body weight and food intake were monitored for the periods of time as indicated.
Cumulative weight gain and food consumption were determined at 3-day intervals by the measurements of body weight and uneaten food remaining in the cages. The animals were placed in a covered chamber to minimise movement during the weighing procedure. The food consumption data were obtained by subtracting the amount of uneaten food remaining in the cages from the original provision.
The procedure for the isolation and measurement of intact epididymal fat pads was established in previous studies of epididymal growth of GH-deficient (lit/lit) mice. In the present study, white adipose tissues, either whole epididymal or parametrical fat pads, were excised with the identical techniques as previously described^22 from the mice immediately after sacrifice. The tissues were washed in cold physiological saline, blotted and weighed. For ex vivo lipogenic assays, the portions of adipose tissues without blood vessels were used.

[1] = tested on: isolated adipose tissues of C57BL/6J (ob/ob) mice; assay: Oxidation of free fatty acid in isolated adipose tissues; type: cell-based, mouse; settings: adipose tissues isolated from obese animals, FIG. 7
Experimental: FIG. 7 illustrates the in vitro effect of hGH 177-191 on fatty acid oxidation in isolated adipose tissues of C57BL/6J (ob/ob) mice with the determination of the rate of [C^14]O2 production from [C^14]-palmitic acid. The rate of [C^14]-palmitic acid oxidation was expressed as μmol/g tissue/hr.
The effect of hGH 177-191 or analogues on the free fatty acid (FFA) oxidation in the adipose tissues is evaluated by the measure of converted [C^14]O2 from C^14-palmitic acid. The [C^14]O2 a final product of FFA oxidation, was trapped by hyamine hydroxide and measured by liquid scintillation counter. The rate of FFA oxidation was then determined by [C^14] radioactivity.
Adipose tissues removed from laboratory animals were sliced into segments of approximately 200 mg each. The tissues in 25 ml vials containing 2 ml of Krebs-Ringer phosphate (KRP) buffer, and 2% defatted bovine serum albumin (BSA) were pre-incubated at 37° C. for 30 minutes under an atmosphere of carbogen (95%O2/5%CO2) Then the tissues were transferred to Konte flasks with fresh incubation medium with 0.15 mM sodium [C^14]-palmitate (final [C^14]-specific activity, 0.20 μCi/μmol) and hGH 177-191 peptide or analogues (1-1000 nM). […] The [C^14] radioactivity was measured with a liquid scintillation counter. The rate of [C^14]-palmitic acid oxidation to [C^14]O2 was calculated and expressed as μmol/g tissue/hr.

Porcine adipose Tissue = assay: Lipolytic activity in porcine adipose tissue; type: cell-based, pig; settings: 0.5 μM peptide
Experimental: Adipose tissues were removed from animals and sliced into segments of approximately 200 mg each. Then the tissues were pre-incubated in 25 ml vials containing 2 ml of Krebs-Ringerbicarbonate (KRB) buffer, 4% defatted BSA and 5.5 mM glucose under an atmosphere of carbogen (95%O2/ 5%CO2) at 37° C. for 1 hour. Tissues were then transferred to another vials with fresh medium and the incubation was initiated by adding hGH 177-191 peptide or analogues into the vials. The mixtures were then incubated at 37° C. for 90 minutes. After incubation, the tissues wee removed and aliquots (200 μl) of samples withdrawn from the medium were assayed for the contents of glycerol or free fatty acid (FFA) either by the enzyme assay (glycerol kinase) or calorimetric (copper-dye) spectrometry. The NADH or color produced was then monitored by the absorption at 340 nm and 610 nm, respectively.
Since corresponding sequences of non-human mammals are effectively peptide variants of the human sequence, it is also therefore expected that those corresponding sequences will be effective in other mammals including humans.

[2] = tested on: isolated adipocytes of normal rats; assay: Diacylglycerol (DAG) release from isolated adipocytes; type: cell-based, rat
Experimental: FIG. 8 illustrates the in vitro effect of hGH 177-191 on the release of diacylglycerol from isolated adipocytes of normal rats over an incubation period of 40 min. Diacylglycerol was quantitated using radioenzymic assay and the results were expressed as % increase over the basal levels.
Diacylglycerol released from isolated adipose tissue or adipocytes was quantitated using a radioenzymic assay, employing E coli DAG kinase and defined mixed micelle conditions to solubilize DAG and allow its quantitative conversion to [^33p] phosphatidic acid in the presence of [^33p]-γ-ATP.

[3] = female ob/ob mice, 18-day daily i.p. 200 μg/kg
[4] = male ob/ob mice, 18-day daily i.p. 200 μg/kg

## LRIVQCRSVEGSCGF (cysteine pairing not given here) [Ref No. 9401]
C57BL/6J (ob/ob) mice; both male and female ob/ob mice
  average daily body weight gain lower than control: approximately 27%
C57BL/6J (ob/ob) mice; [3]
  Adipose tissue (intact parametrical fat pads): 3.26 g
  Body wt. gain: 4.0 g
  Final body wt.: 52.2 g
  daily body weight gain: 0.22 ± 0.04 g/day
C57BL/6J (ob/ob) mice; female ob/ob mice, parametrical fat pads
  reduction of adipose tissue weight versus control: ≤ 12%
C57BL/6J (ob/ob) mice; female ob/ob mice
  Initial body wt.: 48.2 g
C57BL/6J (ob/ob) mice; male and female ob/ob mice, 18-day daily i.p. 200 μg/kg
  cumulative body weight gain versus control (in words): clear reduction
C57BL/6J (ob/ob) mice; male and female ob/ob mice, 18-day treatment
  average daily food consumption versus control (in words): no significant difference
C57BL/6J (ob/ob) mice; [4]
  Adipose tissue (intact epididymal fat pads): 2.52 ± 0.25 g
  Body wt. gain: 2.9 ± 0.6 g
  Final body wt.: 51.5 ± 2.3 g
  daily body weight gain: 0.16 ± 0.04 g/day
C57BL/6J (ob/ob) mice; male ob/ob mice, epididymal fat pads
  reduction of adipose tissue weight versus control: up to 20%
C57BL/6J (ob/ob) mice; male ob/ob mice
  Initial body wt.: 48.6 ± 2.0 g
[1]
  oxidation of fatty acids (in words): enhanced
Porcine adipose Tissue
  Glycerol released: 1300 ± 160 nmol/mg tissue/hour
[2]
  production/release of diacylglycerol (in words): activation of the production
